Molecular target: T1, HrcN (Δ1-18 WT HrcN) (Pseudomonas syringae group genomosp. 3, UniProt Q887B5)
T1 construct: gene sctN; N-terminal residues 1-18 removed, His6-tagged (tag not reported cut), pETM11, expressed in E. coli BL21(DE3) pLysS, HisTrap purified
Format: binding
Settings: 1 mM unlabelled competitor, 1.25 µM HrcN, 0.6 µM 2'-Fluo-AHC-c-diGMP; pH 7.5, 10 mM MgCl2

Nc1nc2c(ncn2[C@@H]2O[C@@H]3COP(=O)(O)O[C@H]4[C@@H](O)[C@H](n5cnc6c(=O)[nH]c(N)nc65)O[C@@H]4COP(=O)(O)O[C@H]3[C@H]2O)c(=O)[nH]1 [cyclic-di-GMP]
competition DRaCALA against fluorescent c-di-GMP: fluorescent cdG binding could be disrupted by the addition of unlabelled cdG
